Measured values: ChEMBL document CHEMBL5370659 (J Med Chem, 2023)
pIC50: −log10 of the molar value. Calls of active or inactive are those of the source. The rule behind the calls is not given here.

Tests used:
Mus musculus [1] = assay: Effect on total duration of immobility in C57BL/6N mouse at 50 mg/kg, po treated for 14 days by tail suspension test; format: functional, organism-based; details: time 14.0 day
[2] = Drug uptake in Sprague-Dawley rat lung at 50 mg/kg, po measured at 2 hrs by LC-MS/MS analysis; format: ADME, organism-based; details: read-out: Drug uptake
[3] = target: T1, Tryptophan 5-hydroxylase 1 (Homo sapiens, UniProt P17752); assay: Inhibition of THP1 in human serotonergic BON cells assessed as reduced the intracellular serotonin levels incubated for 72 hrs; format: cell-based
T1 sequence (P17752 whole entry): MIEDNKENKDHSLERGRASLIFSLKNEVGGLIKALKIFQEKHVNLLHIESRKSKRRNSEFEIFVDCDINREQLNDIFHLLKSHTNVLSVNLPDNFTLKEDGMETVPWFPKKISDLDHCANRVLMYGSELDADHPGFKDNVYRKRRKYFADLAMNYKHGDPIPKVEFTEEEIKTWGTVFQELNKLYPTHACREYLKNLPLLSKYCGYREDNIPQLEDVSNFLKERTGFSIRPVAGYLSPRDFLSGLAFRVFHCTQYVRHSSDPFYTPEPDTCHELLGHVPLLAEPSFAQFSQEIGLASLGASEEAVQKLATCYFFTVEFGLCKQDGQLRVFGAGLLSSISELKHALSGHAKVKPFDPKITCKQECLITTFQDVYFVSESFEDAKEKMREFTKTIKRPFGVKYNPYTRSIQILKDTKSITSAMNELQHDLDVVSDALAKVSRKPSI

Cytochrome P450 2C9 = Cytochrome P450 2C9 (Homo sapiens, UniProt P11712); assay: Inhibition of CYP2C9 in human liver microsome using diclofenac as substrate measured upto 50 uM incubated for 10 mins followed by NADPH addition incubated for 10 mins by LC/MS/MS analysis; format: ADME; details: microsomes, 20 min
Sequence of Cytochrome P450 2C9 (P11712 whole entry): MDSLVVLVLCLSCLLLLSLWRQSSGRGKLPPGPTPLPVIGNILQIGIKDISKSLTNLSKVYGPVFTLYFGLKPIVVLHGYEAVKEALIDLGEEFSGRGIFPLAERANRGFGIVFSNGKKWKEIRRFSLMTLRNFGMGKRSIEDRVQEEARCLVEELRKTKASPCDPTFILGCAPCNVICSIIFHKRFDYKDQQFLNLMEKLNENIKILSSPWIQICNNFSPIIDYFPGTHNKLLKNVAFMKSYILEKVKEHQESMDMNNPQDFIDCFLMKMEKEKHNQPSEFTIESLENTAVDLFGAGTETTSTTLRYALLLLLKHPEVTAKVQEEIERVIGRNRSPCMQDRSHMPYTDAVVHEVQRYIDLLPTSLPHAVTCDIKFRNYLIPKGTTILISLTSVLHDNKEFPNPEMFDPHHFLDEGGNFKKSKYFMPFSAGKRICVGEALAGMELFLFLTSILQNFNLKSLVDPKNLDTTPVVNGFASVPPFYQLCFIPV

[4] = Tlast in Sprague-Dawley rat at 50 mg/kg, po measured upto 1440 mins by LC-MS/MS analysis; format: ADME, organism-based; details: in vivo, 24 h
Mus musculus [5] = assay: Effect on hedonic component behavior in C57BL/6N mouse at 50 mg/kg, po treated for 14 days by sucrose preference test; format: functional, organism-based; details: time 14.0 day
[6] = Cmax in Sprague-Dawley rat at 20 mg/kg, po measured upto 1440 mins by LC-MS/MS analysis; format: ADME, organism-based; design: time < 1440 min, dose 20 mg/kg, route po; details: in vivo
[7] = Plasma concentration in Sprague-Dawley rat at 50 mg/kg, po measured at 2 hrs by LC-MS/MS analysis; format: ADME, organism-based
[8] = AUC (0 to last) in Sprague-Dawley rat at 10 mg/kg, iv measured upto 1440 mins by LC-MS/MS analysis; format: ADME, organism-based; design: time < 1440 min, dose 10 mg/kg, route iv; details: in vivo
[9] = Apparent permeability across apical to basal side in human Caco-2 cells at pH 6.5/7.4 measured at 5 uM by LC-MS/MS analysis; format: ADME, cell-based; details: Caco-2, pH 6.5
[10] = Drug uptake in Sprague-Dawley rat lung at 20 mg/kg, po measured at 2 hrs by LC-MS/MS analysis; format: ADME, organism-based; details: read-out: Drug uptake
[11] = Tmax in Sprague-Dawley rat at 20 mg/kg, po measured upto 1440 mins by LC-MS/MS analysis; format: ADME, organism-based; details: in vivo
[12] = Toxicity in C57BL/6N mouse subcutaneously transplanted with mouse MC-38 cells assessed as body weight change at 50 mg/kg, po bid measured on day 20; format: organism-based; details: in vivo, sc, 480 h, time 20 day
Mus musculus [13] = assay: Effect on total duration of immobility in C57BL/6N mouse at 10 mg/kg, po treated for 14 days by tail suspension test; format: functional, organism-based; details: time 14.0 day
[14] = Oral bioavailability in Sprague-Dawley rat at 50 mg/kg measured upto 1440 mins by LC-MS/MS analysis; format: ADME, organism-based; details: in vivo
[15] = AUC (0 to infinitive) in Sprague-Dawley rat at 10 mg/kg, iv measured upto 1440 mins by LC-MS/MS analysis; format: ADME, organism-based; design: dose 10 mg/kg, time < 1440 min, route iv; details: in vivo
[16] = Tmax in Sprague-Dawley rat at 50 mg/kg, po measured upto 1440 mins by LC-MS/MS analysis; format: ADME, organism-based; details: in vivo
Mus musculus [17] = assay: Effect on total travelled distance of C57BL/6N mouse at 100 mg/kg, po treated for 14 days by locomotor activity test; format: functional, organism-based; details: time 14.0 day
[18] = Drug uptake in Sprague-Dawley rat brain at 50 mg/kg, po measured at 2 hrs by LC-MS/MS analysis; format: ADME, organism-based; details: read-out: Drug uptake
[19] = Oral bioavailability in CD-1 (ICR) mouse at 50 mg/kg measured upto 1440 mins by LC-MS/MS analysis; format: ADME, organism-based; details: in vivo
[20] = Toxicity in C57BL/6N mouse assessed as body weight change at 1.5 to 15 mg/kg, po bid treated for 7 days; format: organism-based; details: in vivo, 168 h, dose 1.5-15 mg/kg, time 7 day
[21] = Toxicity in C57BL/6N mouse assessed as general toxic effects at 1.5 to 15 mg/kg, po bid treated for 7 days; format: organism-based; details: in vivo, 168 h, dose 1.5-15 mg/kg, time 7 day
[22] = AUC (0 to infinitive) in Sprague-Dawley rat at 20 mg/kg, po measured upto 1440 mins by LC-MS/MS analysis; format: ADME, organism-based; design: dose 20 mg/kg, time < 1440 min, route po; details: in vivo
[23] = Mutagenicity in Salmonella typhimurium TA98 in presence or absence of rat liver S9 fraction by Ames test; format: toxicity; details: salmonella enterica subsp. enterica serovar typhimurium
[24] = Apparent permeability across basal to apical side in human Caco-2 cells at pH 6.5/7.4 measured at 5 uM by LC-MS/MS analysis; format: ADME, cell-based; details: Caco-2, pH 6.5
[25] = Plasma concentration in Sprague-Dawley rat at 20 mg/kg, po measured at 0.5 hrs by LC-MS/MS analysis; format: ADME, organism-based
Cytochrome P450 2C19 = Cytochrome P450 2C19 (Homo sapiens, UniProt P33261); assay: Inhibition of CYP2C19 in human liver microsome using S-mephenytoin as substrate measured upto 50 uM incubated for 10 mins followed by NADPH addition incubated for 10 mins by LC/MS/MS analysis; format: ADME; details: microsomes, 20 min
Sequence of Cytochrome P450 2C19 (P33261 whole entry): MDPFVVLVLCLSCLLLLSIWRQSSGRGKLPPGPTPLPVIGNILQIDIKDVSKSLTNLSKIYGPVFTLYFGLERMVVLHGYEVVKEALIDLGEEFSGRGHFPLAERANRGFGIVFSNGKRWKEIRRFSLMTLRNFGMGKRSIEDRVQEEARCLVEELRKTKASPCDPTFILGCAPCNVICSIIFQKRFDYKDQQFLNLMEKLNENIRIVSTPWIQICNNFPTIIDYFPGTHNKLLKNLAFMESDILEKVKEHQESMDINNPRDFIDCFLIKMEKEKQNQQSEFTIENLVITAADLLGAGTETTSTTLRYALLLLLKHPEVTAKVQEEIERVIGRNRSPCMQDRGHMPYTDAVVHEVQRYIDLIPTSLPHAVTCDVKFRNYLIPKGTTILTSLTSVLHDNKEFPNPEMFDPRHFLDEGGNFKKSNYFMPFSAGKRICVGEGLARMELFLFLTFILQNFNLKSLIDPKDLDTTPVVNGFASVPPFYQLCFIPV

[26] = Half life in CD-1 (ICR) mouse at 50 mg/kg, po measured upto 1440 mins by LC-MS/MS analysis; format: ADME, organism-based; details: in vivo
[27] = AUC (0 to infinitive) in Sprague-Dawley rat at 50 mg/kg, po measured upto 1440 mins by LC-MS/MS analysis; format: ADME, organism-based; design: dose 50 mg/kg, time < 1440 min, route po; details: in vivo
[28] = AUC (0 to last) in Sprague-Dawley rat at 20 mg/kg, po measured upto 1440 mins by LC-MS/MS analysis; format: ADME, organism-based; design: time < 1440 min, dose 20 mg/kg, route po; details: in vivo
[29] = Metabolic stability in human hepatocytes assessed as half life; format: ADME, cell-based, Hepatocyte

concentration at 2 h [2]: 391 ng/g
pIC50 [3]: 6.02
inhibition (INH) (Cytochrome P450 2C9): Not Active
Tlast [4]: 24 h
Cmax [6]: 2090 ng/mL
concentration at 2 h [7]: 1370 ng/mL
AUC(0-t) at 24 h [8]: 5000 ng·h/mL
Papp A→B at 5 µM [9]: 0.14 ×10⁻⁶ cm/s
concentration at 2 h [10]: 76 ng/g
Tmax [11]: 25.2 min
bioavailability [14]: 32.7%
AUC(0-inf) [15]: 5030 ng·h/mL
Tmax [16]: 49.8 min
concentration at 2 h [18]: 18 ng/g
bioavailability [19]: 41.3%
AUC(0-inf) [22]: 3320 ng·h/mL
Papp B→A at 5 µM [24]: 23 ×10⁻⁶ cm/s
concentration at 0.5 h [25]: 1420 ng/mL
inhibition (INH) (Cytochrome P450 2C19): Not Active
half-life [26]: 106 min
AUC(0-inf) [27]: 8220 ng·h/mL
AUC(0-t) at 24 h [28]: 3300 ng·h/mL
half-life [29]: > 145 min
Structure (SMILES): CCn1c(=O)[nH]c(=O)c2c1nc(Cc1cn3cc(C)sc3n1)n2CC1COC1
Activity (Mus musculus [1]): inactive
Activity (Mus musculus [5]): inactive
Activity [12]: Non-Toxic
Activity (Mus musculus [13]): inactive
Activity (Mus musculus [17]): inactive
Activity [20]: Non-Toxic
Activity [21]: Non-Toxic
Activity [23]: Non-Toxic
